This note sets out measurements from ChEMBL document CHEMBL3526122, “Identification of UDP-glucuronosyltransferases responsible for the glucuronidation of darexaban, an oral factor Xa inhibitor, in human liver and intestine” (Drug Metab Dispos, 2012).

The nature of data set [1]: Drug metabolism in human liver microsomes assessed as glucuronidation at 30 uM after 10 mins by LC-MS/MS analysis relative to vehicle-treated control in presence of propofol and UDPGA. In kind it is ADME. The note with it: with propofol, read-out: Drug metabolism.
Data set [2] addresses T1, UDP-glucuronosyltransferase 1A7 (Homo sapiens, UniProt Q9HAW7).
T1 sequence (Q9HAW7 whole entry): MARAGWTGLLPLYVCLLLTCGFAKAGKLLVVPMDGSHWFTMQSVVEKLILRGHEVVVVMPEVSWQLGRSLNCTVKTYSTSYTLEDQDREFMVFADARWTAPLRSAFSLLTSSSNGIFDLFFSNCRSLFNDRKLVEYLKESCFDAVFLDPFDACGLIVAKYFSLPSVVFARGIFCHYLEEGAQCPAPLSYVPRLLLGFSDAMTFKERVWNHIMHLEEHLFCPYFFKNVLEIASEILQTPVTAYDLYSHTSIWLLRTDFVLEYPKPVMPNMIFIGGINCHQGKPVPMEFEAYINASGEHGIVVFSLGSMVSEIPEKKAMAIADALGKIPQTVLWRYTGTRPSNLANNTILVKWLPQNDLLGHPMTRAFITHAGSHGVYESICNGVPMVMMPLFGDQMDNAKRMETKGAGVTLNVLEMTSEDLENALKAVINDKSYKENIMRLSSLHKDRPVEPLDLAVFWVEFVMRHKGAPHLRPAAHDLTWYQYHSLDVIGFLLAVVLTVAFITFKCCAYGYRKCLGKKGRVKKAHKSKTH
Briefly: Activity of human recombinant UGT1A7 expressed in baculovirus-infected insect cells assessed as intrinsic clearance for enzyme-mediated glucuronide formation per mg of protein at 1 to 250 uM after 10 mins by Michaelis-Menten plot analysis in presence of UDPGA. In kind it is ADME.

The subject of another data set is Liver microsome. Briefly: Unbound intrinsic clearance in human liver microsomes assessed per mg of protein after 10 mins in presence of UDPGA and 0.5% fatty acid free BSA. It is filed as ADME. For orientation: Liver microsomes are a subcellular fraction often used to study metabolism.
Data set [3] addresses T2, UDP-glucuronosyltransferase 1A9 (Homo sapiens, UniProt O60656).
T2 sequence (O60656 whole entry): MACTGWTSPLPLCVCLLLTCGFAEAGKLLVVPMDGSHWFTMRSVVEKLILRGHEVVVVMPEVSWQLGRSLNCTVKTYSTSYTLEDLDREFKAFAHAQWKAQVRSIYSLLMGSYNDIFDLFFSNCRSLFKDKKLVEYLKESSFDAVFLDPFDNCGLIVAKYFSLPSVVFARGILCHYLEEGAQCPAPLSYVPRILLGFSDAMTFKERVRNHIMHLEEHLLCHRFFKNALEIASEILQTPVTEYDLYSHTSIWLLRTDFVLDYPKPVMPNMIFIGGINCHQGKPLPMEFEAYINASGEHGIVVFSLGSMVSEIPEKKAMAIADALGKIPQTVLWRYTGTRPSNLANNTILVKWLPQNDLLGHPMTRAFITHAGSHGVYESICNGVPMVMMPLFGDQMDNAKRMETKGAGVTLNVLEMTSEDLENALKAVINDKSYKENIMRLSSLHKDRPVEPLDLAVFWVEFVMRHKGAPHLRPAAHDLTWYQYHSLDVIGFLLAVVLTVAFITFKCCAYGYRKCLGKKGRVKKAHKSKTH
Briefly: Activity of human recombinant UGT1A9 expressed in baculovirus-infected insect cells assessed as unbound intrinsic clearance for enzyme-mediated glucuronidation per mg of protein after 5 mins by Michaelis-Menten plot analysis in presence of UDPGA and 0.1% fatty acid free BSA. It is filed as ADME.

Data set [4] addresses T2, UDP-glucuronosyltransferase 1A9. Briefly: Activity of human recombinant UGT1A9 expressed in baculovirus-infected insect cells assessed as unbound intrinsic clearance for enzyme-mediated glucuronidation per mg of protein after 5 mins by Michaelis-Menten plot analysis in presence of UDPGA and 0.5% fatty acid free BSA. It is filed as ADME.
Data set [5] in a line: Drug metabolism in human intestinal microsomes assessed as glucuronidation at 30 uM after 5 mins by LC-MS/MS analysis relative to vehicle-treated control in presence of beta-estradiol and UDPGA. It is filed as ADME, Intestine, Microsome. The note with it: with beta-estradiol, read-out: Drug metabolism.
The nature of data set [6]: Drug metabolism in human liver microsomes assessed as glucuronidation at 30 uM after 5 mins by LC-MS/MS analysis relative to vehicle-treated control in presence of bilirubin and UDPGA. In kind it is ADME. The following applies: with bilirubin, read-out: Drug metabolism.
Data set [7] is described as follows: Fraction unbound incubation mixture containing human recombinant UGT1A9 at 1 to 250 uM after 10 mins by ultrafiltration method in presence of 0.5% fatty acid free BSA.
The nature of data set [8]: Drug metabolism in human liver microsomes assessed as glucuronidation after 10 mins by Michaelis-Menten plot analysis in presence of UDPGA and absence of fatty acid free BSA. In kind it is ADME. The note with it: read-out: Km(unbound).
A short description of data set [9]: Drug metabolism in human liver microsomes assessed as glucuronidation after 10 mins by Michaelis-Menten plot analysis in presence of UDPGA and 0.1% fatty acid free BSA. In kind it is ADME. The note with it: read-out: Km(unbound).

The Km is the substrate concentration at which the rate is half of its maximum. On to `COc1ccc(C(=O)Nc2cccc(O)c2NC(=O)c2ccc(N3CCCN(C)CC3)cc2)cc1.O=C(O)CCC(=O)O`, for which the activity at 10 min, 30 µM in data set [1] worked out at 9%. In addition, the clearance in data set [2] turned out to be 12.3 µL/min/mg. Moreover, the CL free stood at 184 µL/min/mg in the data set with Liver microsome, 250 µL/min/mg in data set [3] and 257 µL/min/mg in data set [4]. For the same molecule, the activity at 5 min, 30 µM in data set [5] turned out to be 22.6%; in data set [6], 59.9%. Further, the Fu in [7] was 0.553. Also, the Km at 10 min in [8] stood at 216 µM; in data set [9] it was 17.7 µM.
